Test results: publication PMC6938345, “Inhibition of complement activation, myeloperoxidase, NET formation and oxidant activity by PIC1 peptide variants” (PLoS ONE, 2019)
Where a SMILES comes first, the peptide text is derived from it. [ ]: non-standard residue; d: D form. Sar = CNCC(=O)O

What was measured:
[1] = test system: purified human neutrophils; test: NETosis assay, free DNA by PicoGreen; assay type: cell-based; conditions: for PICO green - NETs, free DNA release: Average of n = 3, peptide 2 mM
Method: NETosis assays with immune complexes were performed as previously described. Briefly, normal human serum was stimulated with ovalbumin-antiovalbumin immune complexes in GVBS^++ for 30 minutes at 37 °C. This mixture along with 0.05% H2O2 was then added to purified human neutrophils resuspended in RPMI with or without sarcosine variants (2 mM), allowing NETosis to occur. Quantitation of free DNA released from the neutrophils was performed using PicoGreen. Slides were stained with DAPI (Southern Biotech, Birmingham, AL) and the following antibodies, mouse anti-elastase (Invitrogen, Carlsbad, CA) was used with the secondary goat anti-mouse Alexa Fluor 568 (Novus Biologicals, Centennial, CO) and rabbit anti-histone H3 (Abcam, Cambridge MA) with goat anti-rabbit Alexa Fluor 488 (Novus Biologicals) to visualize formation of NETs which were imaged with fluorescence microscopy with an Olympus BX53 microscope.
In this assay purified human neutrophils are stimulated with normal human serum activated with ovalbumin-antiovalbumin immune complexes and hydrogen peroxide. Free DNA expressed from the neutrophils is then measured in a PicoGreen assay.
Fig 5 Sarcosine variant inhibition of NET formation. Fluorescence microscopy images of NET formation after neutrophil stimulation with immune complexes (IC) and hydrogen peroxide (H2O2) compared with neutrophil only control. Variant I8 inhibition of NET formation is shown in the third row. Histones are probed with anti-histone antibody (αhistone), neutrophil elastase is probed with anti-neutrophil elastase (αNE) and DNA is stained with DAPI. Representative images are shown. […] Purified human neutrophils were stimulated with 2% normal human sera pre-incubated with ovalbumin-antiovalbumin immune complexes, and 0.05% H2O2. Sarcosine peptides and PIC1 were added to the sera to a final concentration of 2 mM. Data are the means of n = 3 independent experiments + SEM.

[2] = test system: antibody-initiated complement activation (type O sera + type AB red blood cells); test: ABO incompatibility hemolytic assay (CH50-type, ex vivo); assay type: cell-based, human; conditions: peptides 1.8 mM; for ABO hemolysis: Avg of n = 4, concentration basis of PIC1 not stated
Method: For hemolytic complement assays, human red blood cells (RBCs) from type AB donors were purified, washed and standardized to 1 × 10^9 cells/ml, as previously described. Human sera from type O donors at a 20% final concentration was combined with 1 mM PIC1 or sarcosine variant peptides and the volume was brought up to 0.15 ml with GVBS^++ and 0.5 ml RBCs. For factor B-depleted sera hemolytic assays, a final of 0.005% factor B depleted sera was incubated with 1 mM PIC1 or sarcosine variant peptides with 0.1 ml antibody-sensitized sheep red blood cells (EA) in a final volume of 0.75 ml GVBS^++. The samples were incubated for 1 hour at 37 °C and then 1.0 ml of GVBS^-—was added to the factor B-depleted samples to stop the reaction. The samples were spun at 3,000 rpm for 5 minutes and the supernatant was collected and read at 412 nm. Values are represented as a percent of the positive control, which consists of human O sera and AB red blood cells in GVBS^++ buffer.
In order to evaluate the extent to which the peptide variants inhibit antibody-initiated complement activation, we tested them in two hemolytic assays including an ABO incompatibility ex vivo assay (Fig 1A) and a classical pathway CH50-type assay in factor B-depleted sera (Fig 1B). In the ABO incompatibility hemolytic assay, purified erythrocytes from a ‘type AB+’ donor are incubated with sera from a ‘type O’ subject containing anti-A and anti-B antibodies; peptides were tested at 1.8 mM. […] We then performed a CH50-type hemolytic assay, with antibody-sensitized sheep erythrocytes, isolating the classical pathway by utilizing factor B-depleted sera; peptides were tested at 0.4 mM.
Fig 1 Sarcosine variant inhibition of complement activation in hemolytic assays and C1q binding. A) Inhibition of ABO incompatibility hemolysis in a CH50-type assay. Peptides are at a final concentration of 1.8 mM. […] Data are the means of n = 4 independent experiments + SEM. B) Inhibition of classical complement pathway-mediated hemolysis in factor B-depleted sera in a CH50-type assay. Peptides are at a final concentration of 0.4 mM. Data are the means of n = 4 independent experiments + SEM. C) Binding of increasing concentrations of sarcosine variants to purified C1q in an ELISA-type assay. Data are the means of n = 3 independent experiments ± SEM. D) Half-maximal binding concentrations were calculated for each peptide’s binding curve.

[3] = Peptide solubility in water
Method: (PA) (Table 1) were synthesized by New England Peptide (Gardner, MA) to >90% purity. Sarcosine variants and PEG were dissolved in water and the pH was adjusted with NaOH. PA was dissolved in DMSO and then brought up to the final concentration with water resulting in 30% DMSO and pH adjusted. Antibody sensitized sheep erythrocytes (EA), purified C1q and factor B-depleted human sera were purchased from Complement Technology (Tyler, TX). Purified myeloperoxidase was purchased from Lee BioSolutions (Maryland Heights, MO) and tetramethylbenzidine (TMB) and PicoGreen were purchased from Thermo Fisher (Waltham MA).
(PA), peptide derivatives were synthesized with sarcosine residues substituted at all 15 positions, included a peptide in which the vicinal cysteines at positions 9 and 10 (C9,C10) were replaced with a single sarcosine residue (Table 1).

[4] = Total Antioxidant Capacity (TAC) assay; conditions: for TAC assay, antioxidant activity: Avg of n = 3; for antioxidant capacity (in words): TAC assay
Method: The TAC (Total Antioxidant Capacity) Assay (Cell Biolabs, Inc, San Diego, CA) was used to measure the antioxidant capacity of the sarcosine variants based on the reduction of copper (II) to copper (I). The kit protocol was performed as recommended.
Antioxidant activity is measured in copper reducing equivalents (CRE). Peptides were tested over a range of concentrations from 0.03–0.25 mM then compared to the standard. Data are the means of n = 3 independent experiments + SEM.

C1q = molecular target: T1, C1q (Homo sapiens, UniProt P02745+P02746+P02747); test: C1q binding ELISA-type assay; conditions: C1q as capture substrate
T1 construct: purchased Complement Technology (Tyler, TX)
T1 sequence (P02745 23-245): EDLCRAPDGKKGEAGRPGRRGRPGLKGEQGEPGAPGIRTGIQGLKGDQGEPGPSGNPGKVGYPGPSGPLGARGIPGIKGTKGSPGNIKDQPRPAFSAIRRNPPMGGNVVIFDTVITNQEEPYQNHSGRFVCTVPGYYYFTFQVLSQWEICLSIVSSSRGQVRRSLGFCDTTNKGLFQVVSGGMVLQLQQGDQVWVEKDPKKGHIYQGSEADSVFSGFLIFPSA
T1 sequence (P02746 28-253): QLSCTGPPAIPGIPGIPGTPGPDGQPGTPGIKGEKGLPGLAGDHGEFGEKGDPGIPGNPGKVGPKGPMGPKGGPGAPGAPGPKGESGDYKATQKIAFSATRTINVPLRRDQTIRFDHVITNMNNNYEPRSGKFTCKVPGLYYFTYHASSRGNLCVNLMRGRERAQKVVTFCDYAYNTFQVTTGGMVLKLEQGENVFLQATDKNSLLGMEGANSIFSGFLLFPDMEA
T1 sequence (P02747 29-245): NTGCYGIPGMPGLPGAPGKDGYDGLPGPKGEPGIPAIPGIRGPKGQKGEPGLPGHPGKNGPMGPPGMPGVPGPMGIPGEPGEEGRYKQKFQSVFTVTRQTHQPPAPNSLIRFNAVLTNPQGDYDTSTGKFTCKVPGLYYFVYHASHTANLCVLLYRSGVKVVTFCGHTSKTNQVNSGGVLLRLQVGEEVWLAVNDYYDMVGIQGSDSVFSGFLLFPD
Method: An Immunlon-2 HB ELISA plate was coated with 1 μg/ml C1q or MPO in bicarbonate buffer overnight at 4 °C. The plates were washed with PBST (phosphate buffered saline + 0.1% Tween) and then blocked with 1% gelatin/PBS for 2 hours at room temperature. After washing, the plates were incubated with PA or sarcosine variant peptides starting at 2.5 mg/ml and then serially diluted in 1% gelatin/PBS for 1 hour at room temperature. After washing, the plates were probed with rabbit anti-PA (developed with Cocalico Biologicals, Reamstown, PA) at 1:1000 in 1% gelatin/PBS for 1 hour, room temperature, followed by a goat anti-rabbit HRP (Sigma Aldrich, St Louis, MO) at 1:1,000 in 1% gelatin/PBS for 1 hour at room temperature with a washing step in between. Wells were developed using TMB substrate solution, stopped using 1 N H2SO4, and read at 450 nm in a plate reader.
We then tested peptide variant binding to C1q in an ELISA-type assay in which the C1q is used as the capture substrate. Binding curves for each peptide is shown in Fig 1C, from which half-maximal binding concentrations were calculated (Fig 1D). […] Higher concentrations of DMSO interfere with the detecting reagents resulting in a partial binding curve.

Row | SMILES | PICO green - NETs, free DNA release [1] | ABO hemolysis [2] | inhibition of ABO incompatible hemolysis (in words) [2] | solubility in water (in words) [3] | TAC assay, antioxidant activity [4] | inhibition of NETosis (in words) ([1]; peptides 2 mM, immune complexes + H2O2, PicoGreen free DNA) | antioxidant capacity (in words) [4] | binding to C1q (in words) (C1q)
1 | CC[C@H](C)[C@H](N)C(=O)N(C)CC(=O)N[C@@H](CC(C)C)C(=O)N[C@H](C(=O)N[C@@H](CC(C)C)C(=O)N[C@@H](CCC(=O)O)C(=O)N1CCC[C@H]1C(=O)N[C@H](C(=O)N[C@@H](CS)C(=O)N[C@@H](CS)C(=O)N[C@@H](CCC(N)=O)C(=O)N[C@@H](CCC(=O)O)C(=O)N[C@@H](CCCNC(=N)N)C(=O)N[C@@H](C)C(=O)N[C@@H](C)C(=O)O)[C@@H](C)CC)[C@@H](C)CC [A2] | 44 | 18.50 % of Control | to a greater extent than did the PA-dPEG24 | soluble in water | 1071.61 copper reducing equivalents (CRE) | – | – | –
2 | CC[C@H](C)[C@H](N)C(=O)N[C@@H](C)C(=O)N[C@@H](CC(C)C)C(=O)N[C@H](C(=O)N[C@@H](CC(C)C)C(=O)N[C@@H](CCC(=O)O)C(=O)N1CCC[C@H]1C(=O)N[C@H](C(=O)N(C)CC(=O)N[C@@H](CCC(N)=O)C(=O)N[C@@H](CCC(=O)O)C(=O)N[C@@H](CCCNC(=N)N)C(=O)N[C@@H](C)C(=O)N[C@@H](C)C(=O)O)[C@@H](C)CC)[C@@H](C)CC [C9,10] (H-IALILEPI[Sar]QERAA-OH) | – | – | – | soluble in water | – | – | – | –
3 | CC[C@H](C)[C@H](N)C(=O)N[C@@H](C)C(=O)N[C@@H](CC(C)C)C(=O)N(C)CC(=O)N[C@@H](CC(C)C)C(=O)N[C@@H](CCC(=O)O)C(=O)N1CCC[C@H]1C(=O)N[C@H](C(=O)N[C@@H](CS)C(=O)N[C@@H](CS)C(=O)N[C@@H](CCC(N)=O)C(=O)N[C@@H](CCC(=O)O)C(=O)N[C@@H](CCCNC(=N)N)C(=O)N[C@@H](C)C(=O)N[C@@H](C)C(=O)O)[C@@H](C)CC [I4] | 68 | 18.25 % of Control | to a greater extent than did the PA-dPEG24 | soluble in water | 1518.02 copper reducing equivalents (CRE) | reduced ability to inhibit NETosis | approaching that of PA-dPEG24 | –
4 | CC[C@H](C)[C@H](N)C(=O)N[C@@H](C)C(=O)N(C)CC(=O)N[C@H](C(=O)N[C@@H](CC(C)C)C(=O)N[C@@H](CCC(=O)O)C(=O)N1CCC[C@H]1C(=O)N[C@H](C(=O)N[C@@H](CS)C(=O)N[C@@H](CS)C(=O)N[C@@H](CCC(N)=O)C(=O)N[C@@H](CCC(=O)O)C(=O)N[C@@H](CCCNC(=N)N)C(=O)N[C@@H](C)C(=O)N[C@@H](C)C(=O)O)[C@@H](C)CC)[C@@H](C)CC [L3] | 29 | 24.75 % of Control | – | soluble in water | 1336.63 copper reducing equivalents (CRE) | – | approaching that of PA-dPEG24 | –
5 | CC[C@H](C)[C@H](N)C(=O)N[C@@H](C)C(=O)N[C@@H](CC(C)C)C(=O)N[C@H](C(=O)N(C)CC(=O)N[C@@H](CCC(=O)O)C(=O)N1CCC[C@H]1C(=O)N[C@H](C(=O)N[C@@H](CS)C(=O)N[C@@H](CS)C(=O)N[C@@H](CCC(N)=O)C(=O)N[C@@H](CCC(=O)O)C(=O)N[C@@H](CCCNC(=N)N)C(=O)N[C@@H](C)C(=O)N[C@@H](C)C(=O)O)[C@@H](C)CC)[C@@H](C)CC [L5] | 32 | 33.50 % of Control | – | soluble in water | 882.23 copper reducing equivalents (CRE) | – | – | –
6 | CC[C@H](C)[C@H](N)C(=O)N[C@@H](C)C(=O)N[C@@H](CC(C)C)C(=O)N[C@H](C(=O)N[C@@H](CC(C)C)C(=O)N[C@@H](CCC(=O)O)C(=O)N1CCC[C@H]1C(=O)N[C@H](C(=O)N[C@@H](CS)C(=O)N[C@@H](CS)C(=O)N[C@@H](CCC(N)=O)C(=O)N[C@@H](CCC(=O)O)C(=O)N[C@@H](CCCNC(=N)N)C(=O)N[C@@H](C)C(=O)N[C@@H](C)C(=O)O)[C@@H](C)CC)[C@@H](C)CC [PA] | – | – | – | poor aqueous solubility | 1289.18 copper reducing equivalents (CRE) | – | – | superior binding to C1q
